Laboratory results as given in patent US20240083890A1, “MACROCYCLIC BRANCHED 3-FLUORO-BUT-3-ENAMIDES AS INHIBITORS OF MCL-1” (JANSSEN PHARMACEUTICA NV, priority 2020, published 2024).
Where two headings read alike, the source gives them in different places.

Tests used:
[1] = molecular target: Mcl-1 (Homo sapiens (Human), UniProt Q07820); assay: Terbium labeled Mcl-1 HTRF binding assay, displacement of Cy5-labeled BIM BH3 peptide; settings: Ki=IC50/(1+[L]/Kd), [L]=8 nM, Kd=10 nM; 25 pM Tb-Mcl-1, 8 nM Cy5 Bim peptide, 60 min; read-out: Tb-MCL1 Ki
Chain of Mcl-1 (Q07820 whole entry): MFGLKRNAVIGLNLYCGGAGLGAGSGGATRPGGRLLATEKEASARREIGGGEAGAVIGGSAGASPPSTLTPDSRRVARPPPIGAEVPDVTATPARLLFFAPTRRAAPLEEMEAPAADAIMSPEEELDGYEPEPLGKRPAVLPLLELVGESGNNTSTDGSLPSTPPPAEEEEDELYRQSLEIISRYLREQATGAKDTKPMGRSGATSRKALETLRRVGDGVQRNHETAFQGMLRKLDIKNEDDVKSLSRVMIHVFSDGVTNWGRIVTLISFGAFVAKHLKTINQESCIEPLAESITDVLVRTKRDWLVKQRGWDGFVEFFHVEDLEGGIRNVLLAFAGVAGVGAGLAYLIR
Method: Terbium labeled Myeloid Cell Leukemia 1(Mcl-1) homogeneous time-resolved fluorescence (HTRF) binding assay utilizing the BIM BH3 peptide (H2N—(C/Cy5Mal) WIAQELRRIGDEFN-OH) as the binding partner for Mcl-1.
This assay evaluated inhibition of the BH3 domain: Mcl-1 interaction by measuring the displacement of Cy5-labeled BIM BH3 peptide (H2N—(C/Cy5Mal) WIAQELRRIGDEFN-OH) in the HTRF assay format.
The following assay and stock buffers were prepared for use in the assay: (a) Stock buffer: 10 mM Tris-HCl, pH=7.5+150 mM NaCl, filtered, sterilized, and stored at 4° C.; and (b) 1× assay buffer, where the following ingredients were added fresh to stock buffer: 2 mM dithiothreitol (DTT), 0.0025% Tween-20, 0.1 mg/mL bovine serum albumin (BSA). The 1× Tb-Mcl-1+Cy5 Bim peptide solution was prepared by diluting the protein stock solution using the 1× assay buffer (b) to 25 pM Tb-Mcl-1 and 8 nM Cy5 Bim peptide.
Using the Acoustic ECHO, 100 nL of 100× test compound(s) were dispensed into individual wells of a white 384-well Perkin Elmer Proxiplate, for a final compound concentration of 1× and final DMSO concentration of 1%. Inhibitor control and neutral control (NC, 100 nL of 100% DMSO) were stamped into columns 23 and 24 of assay plate. Into each well of the plate was then dispensed 10 μL of the 1× Tb-Mcl-1+Cy5 Bim peptide solution. The plate was centrifuged with a cover plate at 1000 rpm for 1 minute, then incubated for 60 minutes at room temperature with plates covered.
The TR-FRET signal was read on an BMG PHERAStar FSX MicroPlate Reader at room temperature using the HTRF optic module (HTRF: excitation: 337 nm, light source: laser, emission A: 665 nm, emission B: 620 nm, integration start: 60 μs, integration time: […]).
The BMG PHERAStar FSX MicroPlate Reader was used to measure fluorescence intensity at two emission wavelengths—665 nm and 620 nm—and report relative fluorescence units (RFU) for both emissions, as well as a ratio of the emissions (665 nm/620 nm)*10,000. The RFU values were normalized to percent inhibition as follows:
% inhibition (((NC−IC)−(compound-IC))/(NC−IC))*100
where IC (inhibitor control, low signal)=mean signal of 1× Tb-MCl-1+Cy5 Bim peptide+inhibitor control or 100% inhibition of Mel-1; NC (neutral control, high signal)=mean signal 1× Tb-MCI-1+Cy5 Bim peptide with DMSO only or 0% inhibition
An 11-point dose response curve was generated to determine IC50 values (using GenData) based on the following equation:
Y=Bottom+(Top-Bottom)/(1+10^((log IC50−X)*HillSlope))
where Y=% inhibition in the presence of X inhibitor concentration; Top=100% inhibition derived from the IC (mean signal of Mcl-1+inhibitor control); Bottom=0% inhibition derived from the NC (mean signal of Mcl-1+DMSO); Hillslope=Hill coefficient; and IC50=concentration of compound with 50% inhibition in relation to top/neutral control (NC).
In this assay [L]=8 nM and Kd=10 nM
Representative compounds of the present invention were tested according to the procedure as described above, with results as listed in the Table below (n.d. means not determined).

[2] = test system: MOLP-8 human multiple myeloma cell line; assay: Caspase-Glo 3/7 apoptosis induction assay in MOLP-8 cells; type: cell-based; settings: caspase-3/7 activation, 2 hours incubation at 37° C., averaged over all runs on all batches, read-out: MOLP8 AC50
From the text: MCL-1 is a regulator of apoptosis and is highly over-expressed in tumor cells that escape cell death. The assay evaluates the cellular potency of small-molecule compounds targeting regulators of the apoptosis pathway, primarily MCL-1, Bfl-1, Bcl-2, and other proteins of the Bcl-2 family. Protein-protein inhibitors disrupting the interaction of anti-apoptotic regulators with BH3-domain proteins initiate apoptosis.
The Caspase-Glo® 3/7 Assay is a luminescent assay that measures caspase-3 and -7 activities in purified enzyme preparations or cultures of adherent or suspension cells. The assay provides a proluminescent caspase-3/7 substrate, which contains the tetrapeptide sequence DEVD. This substrate is cleaved to release aminoluciferin, a substrate of luciferase used in the production of light. Addition of the single Caspase-Glo® 3/7 Reagent in an “add-mix-measure” format results in cell lysis, followed by caspase cleavage of the substrate and generation of a “glow-type” luminescent signal.
This assay uses the MOLP-8 human multiple myeloma cell line, which is sensitive to MCL-1 inhibition.
Cell cultures were maintained between 0.2 and 2.0×10^6 cells/mL. The cells were harvested by collection in 50 mL conical tubes. The cells were then pelleted at 500 g for 5 mins before removing supernatant and resuspension in fresh pre-warmed culture medium. The cells were counted and diluted as needed.
The assay reagent was prepared by transferring the buffer solution to the substrate vial and mixing. The solution may be stored for up to 1 week at 4° C. with negligible loss of signal.
Compounds were delivered in assay-ready plates (Proxiplate) and stored at −20° C.
Assays always include 1 reference compound plate containing reference compounds. The plates were spotted with 40 nL of compounds (0.5% DMSO final in cells; serial dilution; 30 μM highest conc. 1/3 dilution, 10 doses, duplicates). The compounds were used at room temperature and 4 μL of pre-warmed media was added to all wells except column 2 and 23. The negative control was prepared by adding 1% DMSO in media. The positive control was prepared by adding the appropriate positive control compound in final concentration of 60 μM in media. The plate was prepared by adding 4 μL negative control to column 23, 4 μL positive control to column 2, and 4 μL cell suspension to all wells in the plate. The plate with cells was then incubated at 37° C. for 2 hours. The assay signal reagent is the Caspase-Glo solution described above, and 8 μL was added to all wells. The plates were then sealed and measured after 30 minutes.
The activity of a test compound was calculated as percent change in apoptosis induction as follows: • LC=median of the Low Control values • =Central Reference in Screener • =DMSO • =0% • HC=Median of the High Control values • =Scale Reference in Screener • =30 μM of positive control • =100% apoptosis induction
% Effect (AC50)=100−((sample-LC)/(HC-LC))*100
% Control=(sample/HC)*100
% Control min=((sample-LC)/(HC-LC))*100
Table: Measured AC50 for Representative Compounds of Formula (I). Averaged values are reported over all runs on all batches of a particular compound.

Compound | Ki [1] [nM] | AC50 [2] [nM] | AC50 ([2]; Homo sapiens, MOLP-8) [nM]
C[C@H](O)[C@@H]1/C(F)=C/C[C@H](C)[C@@H](C)S(=O)(=O)NC(=O)c2ccc3c(c2)N(C[C@@H]2CCCN21)C[C@@]1(CCOc2cc(Cl)ccc21)CO3 [Compound 18] | 0.606 | 3420 | –
C[C@@H]1[C@@H](C)C/C=C(\F)[C@H]([C@@H](O)Cn2cccn2)N2CC[C@H]2CN2C[C@@]3(CCCc4cc(Cl)ccc43)COc3ccc(cc32)C(=O)NS1(=O)=O [Compound 19] | 0.049 | – | 126
C[C@@H]1[C@@H](C)C/C=C(\F)[C@H]([C@@H](O)COC2CCOCC2)N2CCC[C@H]2CN2C[C@@]3(CCCc4cc(Cl)ccc43)COc3ccc(cc32)C(=O)NS1(=O)=O [Compound 20] | 0.052 | – | 272
C[C@@H]1[C@@H](C)C/C=C(\F)[C@H]([C@@H](O)CN2CCOCC2)N2CC[C@H]2CN2C[C@@]3(CCCc4cc(Cl)ccc43)COc3ccc(cc32)C(=O)NS1(=O)=O [Compound 21] | 0.051 | – | 87.9
C[C@@H]1[C@@H](C)C/C=C(\F)[C@H]([C@@H](O)CN2CCOCC2)N2CCC[C@H]2CN2C[C@@]3(CCCc4cc(Cl)ccc43)COc3ccc(cc32)C(=O)NS1(=O)=O [Compound 22] | 0.08 | – | 239
COCCN(CCOC)C[C@H](O)[C@H]1/C(F)=C/C[C@H](C)[C@@H](C)S(=O)(=O)NC(=O)c2ccc3c(c2)N(C[C@@H]2CCN21)C[C@@]1(CCCc2cc(Cl)ccc21)CO3 [Compound 23] | 0.023 | – | 69.6
COCC(COC)OC[C@H](O)[C@H]1/C(F)=C/C[C@H](C)[C@@H](C)S(=O)(=O)NC(=O)c2ccc3c(c2)N(C[C@@H]2CCN21)C[C@@]1(CCCc2cc(Cl)ccc21)CO3 [Compound 24] | 0.036 | – | 46.3
COCCN(CC1CCOCC1)C[C@H](O)[C@H]1/C(F)=C/C[C@H](C)[C@@H](C)S(=O)(=O)NC(=O)c2ccc3c(c2)N(C[C@@H]2CCN21)C[C@@]1(CCCc2cc(Cl)ccc21)CO3 [Compound 25] | 0.025 | – | 36.6
COCCCN(CCOC)C[C@H](O)[C@H]1/C(F)=C/C[C@H](C)[C@@H](C)S(=O)(=O)NC(=O)c2ccc3c(c2)N(C[C@@H]2CCN21)C[C@@]1(CCCc2cc(Cl)ccc21)CO3 [Compound 26] | 0.044 | – | 123
C[C@@H]1[C@@H](C)C/C=C(\F)[C@H]([C@@H](O)CN(C)CCC2CCOCC2)N2CC[C@H]2CN2C[C@@]3(CCCc4cc(Cl)ccc43)COc3ccc(cc32)C(=O)NS1(=O)=O [Compound 27] | 0.053 | – | 746
C[C@@H]1[C@@H](C)C/C=C(\F)[C@H]([C@@H](O)CN(C)CC2CCOCC2)N2CC[C@H]2CN2C[C@@]3(CCCc4cc(Cl)ccc43)COc3ccc(cc32)C(=O)NS1(=O)=O [Compound 28] | 0.037 | – | 211
COCCN(C)C[C@H](O)[C@H]1/C(F)=C/C[C@H](C)[C@@H](C)S(=O)(=O)NC(=O)c2ccc3c(c2)N(C[C@@H]2CCN21)C[C@@]1(CCCc2cc(Cl)ccc21)CO3 [Compound 29] | 0.044 | – | 385
COCCOCCN(C)C[C@H](O)[C@H]1/C(F)=C/C[C@H](C)[C@@H](C)S(=O)(=O)NC(=O)c2ccc3c(c2)N(C[C@@H]2CCN21)C[C@@]1(CCCc2cc(Cl)ccc21)CO3 [Compound 30] | 0.036 | – | 944
C[C@@H]1[C@@H](C)C/C=C(\F)[C@H]([C@@H](O)CN(C)C)N2CC[C@H]2CN2C[C@@]3(CCCc4cc(Cl)ccc43)COc3ccc(cc32)C(=O)NS1(=O)=O [Compound 31] | 0.041 | – | 1020
CO[C@H](C)[C@H]1/C(F)=C/C[C@H](C)[C@@H](C)S(=O)(=O)NC(=O)c2ccc3c(c2)N(C[C@@H]2CCCN21)C[C@@]1(CCOc2cc(Cl)ccc21)CO3 [Compound 32] | 1.93 | – | 3710
